Type in all cases: in vivo, mouse
In series [1] the test system is obese C57BL/6 mice. As to the kind of experiment: Body mass, 43-day oral treatment combined with low-fat diet. The note with it: low-fat diet (5% lipids), oral daily, 43 days. The text has this:
In order to determine the long-term effects of compound of interest JM-00.266 (i.e., compound IA), C57BL/6 mice were made obese by means of a high-fat diet (30% crude fat, 33.5% carbohydrates; ref. E15126-34, SSNIFF, Soest, Germany) for 15 weeks. The mice were then subjected to a low-fat diet (5% lipids; Standard Diet AO4; UAR, Epinay-sur-Orge, France) and received daily, in the middle of the day, an oral dose of JM-00.266 (i.e., compound IA) or of vehicle over a period of 43 days. The weight of the animals was measured every two days from the beginning of the treatment.

In series [2] the test system is obese C57BL/6 mice. As to the kind of experiment: OGTT before and after 30-day chronic treatment. The note with it: obese mice after 30 days of treatment, 10 mg/kg. As for the experimental part:
(§1) In order to evaluate the long-term effects of the treatment on blood glucose control, glucose tolerance (OGTT) and insulin sensitivity (ITT) were evaluated pre- and post-treatment. Thus, for the OGTT the mice were force-fed glucose (2 g/kg), and for the ITT the mice received an i.p. injection of insulin (0.5 IU/kg). In both cases, blood glucose was measured at times t=0, t=15 min, t=30 min, t=45 min, t=60 min, t=90 min, and t=120 min post-glucose ingestion using a Contour®TS blood glucose monitor (ref. 81574201, Bayer HealthCare) and reactive strips (ref. 81574274, Bayer HealthCare).

In the next series the test system is wild-type C57BL/6 mice. Put plainly: Plasma insulin during OGTT (ELISA). The conditions noted are these: 10 mg/kg i.p. As for the experimental part: Assay of plasma insulin was carried out using the ALPCO™ Mouse Insulin ELISA Kit (ref. AKRIN-011T, ALPCO Diagnostics) according to the supplier's instructions. Blood samples were collected during an OGTT at t=0, t=30, t=60, t=120 min post-administration of the oral bolus of glucose (2 g/kg).
On the technique in general: An ELISA detects its analyte on a solid surface through an enzyme-linked reagent.

Series [3] concerns obese C57BL/6 mice. As to the kind of experiment: Food intake, body weight and body composition (EchoMRI) during 30-day chronic treatment. The note with it: obese mice, 10 mg/kg i.p. daily, 30 days. The text has this: In order to determine the long-term effects of the molecules of interest, C57BL/6 mice made obese by means of a high-sucrose, high-fat diet (HSHF: 30% crude fat, 33.5% carbohydrates; ref. E15126-34; ref. E15126-34, SSNIFF, Soest, Germany) for 20 weeks. These mice then received daily an i.p. injection of rimonabant, JM-00.266 (i.e., compound IA) or vehicle for a period of 30 days. In parallel, weight and food intake were monitored every two days following the beginning of the treatment.
The long-term effect of the treatment on body composition was measured using an EchoMRI™ scanner allowing non-invasive analysis of fat mass, lean mass and body fluid composition by nuclear magnetic resonance (NMR) on the live animal without anaesthesia.

Series [4] relates to obese C57BL/6 mice. As to the kind of experiment: ITT before and after 30-day chronic treatment. The note with it: obese mice after 30 days of treatment. As for the experimental part:
as §1

For series [5], the system named is obese C57BL/6 mice. Put plainly: Open-field test after 30-day chronic treatment. The note with it: end of 30-day treatment, 10 mg/kg i.p. As for the experimental part:
Locomotor activity of the mice was measured at the conclusion of the chronic treatment with rimonabant or molecule JM-00.266 (i.e., compound IA) by an infrared monitoring system. To that end, the animals were placed individually in 43×43 cm plexiglass boxes (MED associates) for 20 min. Two series of 16 pulsed infrared beams were spaced 2.5 cm apart on opposite walls to record ambulatory X-Y movements at 100 ms resolution. The centre was defined as a central 32×32 cm square. In addition to locomotor activity information, this test makes it possible to predict anxiolytic activity in response to novelty or to an anxiogenic environment. The variables measured in the open field are total ambulatory activity (in cm), the number of entries and the time spent in the central area as well as the distance traversed in the centre divided by the total distance traversed.

For a further series, the system named is CB1R -/- mice. As to the kind of experiment: Acute oral glucose tolerance test (OGTT) in CB1R KO mice. The note with it: 10 mg/kg i.p., OGTT 2 g/kg. The method, then: In order to evaluate the short-term effects of the rimonabant-like molecules, as well as their selectivity for CB1R, wild-type C57BL/6 mice and CB1R −/− mice underwent an oral glucose tolerance test (OGTT at 2 g/kg) 10 min after i.p. injection of vehicle or of JM-02.003 or JM-00.266 (i.e., compound IA) (10 mg/kg). Blood glucose was measured at times t=0, t=15 min, t=30 min, t=45 min, t=60 min, t=90 min, and t=120 min post-oral. glucose administration using a Contour®TS blood glucose monitor (ref. 81574201, Bayer HealthCare) and reactive strips (ref. 81574274, Bayer HealthCare).

Another series deals with C57BL/6 mice. Put plainly: Gastrointestinal transit (charcoal), anandamide-induced inhibition. The note with it: 10 mg/kg i.p. with AEA 10 mg/kg i.p. As for the experimental part:
Transit through the stomach and the intestine was measured via oral administration of vegetable charcoal suspended in gum arabic used herein as nonabsorbable marker. Briefly, following a short fast, C57BL/6 mice were injected intraperitoneally (i.p.) with anandamide (10 mg/kg) in the presence or absence of the molecule of interest JM-00.266 (i.e., compound IA) (10 mg/kg) before oral charcoal administration. 25 minutes later, the animals were sacrificed by cervical dislocation in order to entirely remove the intestine. The distance between the beginning of the pylorus and the location of the charcoal bolus was measured.

Series [6] concerns obese C57BL/6 mice. As to the kind of experiment: Glucose tolerance test after 43-day oral treatment with low-fat diet. The conditions noted are these: 43 days, orally 10 mg/kg once per day. The method, then: In order to evaluate the long-term effects of the treatment on blood glucose control, glucose tolerance was evaluated at the end of the treatment period. The mice received an intraperitoneal injection of glucose (2 g/kg) then blood glucose was measured at times t=0, t=15 min, t=30 min, t=45 min, t=60 min, t=90 min, and t=120 min post-glucose injection using a My Life Pura blood glucose monitor (Ypsomed, Paris, France).

For `CSc1ccc(C2C(N3C(=O)c4ccccc4C3=O)C(=O)N2c2ccc(SC)cc2)cc1` (stereo not drawn) [JM-00.266, trans-1,4-di-(4-methylthiophenyl)-3-N-phthaloyl-azetidine-2-one], the “body mass / weight loss versus vehicle + low-fat diet” value in the series on obese C57BL/6 mice [1] is “decreases significantly more”. Also, in the series with obese C57BL/6 mice [2], the basal blood glucose result is reported as “significant improvement” and the “glucose tolerance (OGTT 2 g/kg)” value is on record as “significant improvement”. The “blood insulin at t=30 min” value with wild-type C57BL/6 mice (versus vehicle) is reported as “lower”. Also, the “insulin production induced by glucose administration” value in the series with wild-type C57BL/6 mice (wild-type mice) was “not stimulated”. Moreover, in the series on obese C57BL/6 mice [3], the “body weight relative to control mice” value was “does not decrease” and the “food intake compared with control mice” value is reported as “not altered”. In addition, in the series on obese C57BL/6 mice [4], the “reduction in blood glucose induced by insulin injection, compared with SR141716” value is “more marked”. The “insulin resistance (ITT)” value in the series with obese C57BL/6 mice [4] (10 mg/kg) was “improved”. In the series on obese C57BL/6 mice [5], the motor activity result is on record as “no effect” and the “time spent in the centre of the arena / anxiety state” value is reported as “not altered”. The “improvement in glucose tolerance in CB1R KO mice” value in the series with CB1R -/- mice is reported as “abolished”. In addition, in the series on C57BL/6 mice, the “effect on AEA-induced inhibition of gastrointestinal transit” value is “completely abolishes the effect of the agonist and normalizes gastrointestinal transit”. In the series with obese C57BL/6 mice [6], the “glucose tolerance versus VEH+LF and VEH+HF” value is reported as “better glucose tolerance”.

For the origin of these results see patent publication US10457665B2, “1,4-di-(4-methylthiophenyl)-3-phtaloylazetidine-2-one and the derivatives thereof” (Universite De Nantes, priority 2015, dated 2019).
